From PubChem BioAssay (NCI)
“And” between values parts separate entries of the source, which are not always exact repeats. Equal entries are not always repeated.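 Protocol summary: plate cells (96-well), add compound at 5 concentrations, incubate 48 h, interpolate endpoints linearly. At the GI50, growth is halved. TGI marks complete inhibition of growth.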

Experiments:
Experiment in all cases: growth of human tumour cells (NCI), 48 h
HOP-62 NSCLC = system: HOP-62 NSCLC
LOX IMVI melanoma = system: LOX IMVI melanoma
MDA-MB-231 breast = system: MDA-MB-231 breast
MDA-N = system: MDA-N
RPMI-8226 leukemia = system: RPMI-8226 leukemia
SF-295 CNS = system: SF-295 CNS
SK-MEL-28 melanoma = system: SK-MEL-28 melanoma
SK-MEL-5 melanoma = system: SK-MEL-5 melanoma
SR leukemia = system: SR leukemia
UACC-62 melanoma = system: UACC-62 melanoma
M14 melanoma = system: M14 melanoma

SMILES | TGI (HOP-62 NSCLC) | TGI (LOX IMVI melanoma) | TGI (MDA-MB-231 breast) | TGI (MDA-N) | TGI (RPMI-8226 leukemia) | TGI (SF-295 CNS) | TGI (SK-MEL-28 melanoma) | TGI (SK-MEL-5 melanoma) | TGI (SR leukemia) | TGI (UACC-62 melanoma) | TGI (M14 melanoma) | GI50 (HOP-62 NSCLC) | GI50 (LOX IMVI melanoma) | GI50 (MDA-MB-231 breast) | GI50 (SF-295 CNS) | GI50 (SK-MEL-5 melanoma)
CCOC(=O)Nc1sc2c(c1C#N)CCCC2 | > 100 µM | > 100 µM | > 100 µM | > 100 µM | > 100 µM | > 100 µM | > 100 µM | > 100 µM | > 100 µM | > 100 µM |  |  |  |  |  | 
COc1ccc(N=NC(=Nc2ccccc2)c2ccc(N(CCC#N)CCC#N)cc2)cc1 | > 100 µM |  | 59.7 µM | > 100 µM | > 100 µM | > 100 µM | > 100 µM | > 100 µM | > 100 µM | > 100 µM | > 100 µM |  |  |  |  | 
N[C@@H](CCC(=O)NCP(=O)(O)O)C(=O)O | > 100 µM |  | > 100 µM | > 100 µM | > 100 µM | > 100 µM | > 100 µM | > 100 µM | > 100 µM | > 100 µM |  |  |  |  |  | 
O=[N+]([O-])c1ccc(Cl)cc1N/N=C/c1ccnc2ccccc12 | > 100 µM |  | > 100 µM | > 100 µM | > 100 µM | > 100 µM | > 100 µM | > 100 µM | > 100 µM | > 100 µM | > 100 µM |  |  |  |  | 
COc1cc(S(=O)(=O)Nc2nc(-c3ccc(N4C(=O)C(CC(=O)O)SC4c4cccs4)cc3)cs2)ccc1Cl (centres undefined) | > 100 µM | 39.3 µM | > 100 µM | > 100 µM |  | > 100 µM | > 100 µM | > 100 µM | 79.1 µM | 48.9 µM | > 100 µM |  |  |  |  | 
C[C@]12CC[C@H](O)CC1=CC[C@@H]1[C@@H]2CC[C@]2(C)C(=N/N)/C(=N\O)C[C@@H]12 | > 100 µM | > 100 µM | > 100 µM | 48.2 µM | > 100 µM | > 100 µM |  | > 100 µM | > 100 µM | > 100 µM | > 100 µM |  |  |  |  | 
CC1(C(=O)O)CCC2(C)CCC3(C)C(=CC(=O)C4C5(C)CCC(O)C(C)(C)C5CCC43C)C2C1 (centres undefined) |  | 41.8 µM |  | > 100 µM |  | 70.1 µM | 52.4 µM | 54.3 µM | 61 µM | 42.5 µM | > 100 µM |  |  |  |  | 
COc1ncc(/C=C2\OC(=O)c3ccccc32)c(OC)n1 | 66 µM | > 100 µM | > 100 µM | > 100 µM | > 100 µM | > 100 µM | > 100 µM | 58.7 µM | > 100 µM |  | > 100 µM |  |  |  |  | 
COC(=O)C1=C(C(=O)OC)SC(=C2SCSC3=C2SC(C(=O)OC)=C(C(=O)OC)C32SC3=C(CCCC3)S2)S1 | > 100 µM | > 100 µM | > 100 µM | > 100 µM |  | > 100 µM | > 100 µM | > 100 µM | > 100 µM | > 100 µM | > 100 µM |  |  |  |  | 
CC(=O)N1C(C(=O)NC2CCCCC2)CSC1c1ccccc1 (centres undefined) | > 100 µM | > 100 µM |  | > 100 µM | > 100 µM | > 100 µM |  | > 100 µM | > 100 µM | > 100 µM | > 100 µM |  |  |  |  | 
Cc1ccc(-c2cc(-c3ccco3)c(C#N)c(=S)n2C2OC(CO)C(O)C(O)C2O)cc1 (centres undefined) | 54.1 µM and > 100 µM | 38.4 µM and > 100 µM | 35.4 µM and 88.1 µM | > 100 µM | > 100 µM and 89.8 µM | 31.3 µM and > 100 µM | > 100 µM | 18.2 µM and 30.8 µM |  | 13.3 µM and > 100 µM | 68.2 µM and 75.7 µM | 6.31 µM and 28 µM | 8.19 µM and 43.1 µM | 8.83 µM and 24 µM | 11.8 µM and 28.6 µM | 5.75 µM and 14.9 µM
C/C(=C\CBr)CCC(Br)C(C)(C)Br (centres undefined) | > 100 µM |  | > 100 µM | > 100 µM | > 100 µM | > 100 µM | > 100 µM | > 100 µM | > 100 µM | > 100 µM | > 100 µM |  |  |  |  | 
Cn1c(=O)c2c(nc3n2CC(C(=O)O)N3)n(C)c1=O (centres undefined) | > 100 µM | > 100 µM | > 100 µM | > 100 µM | > 100 µM | > 100 µM | > 100 µM | > 100 µM |  | > 100 µM | > 100 µM |  |  |  |  | 
C[C@]12CCC3C4=C(CCC3C1CCC2=O)C(=O)[C@H]1O[C@H]1C4=O (some centres undefined) | 12.8 µM | 5.18 µM | 3.64 µM | 19.4 µM | 4.25 µM | 29.8 µM | 25.4 µM | 23.9 µM |  | 9.34 µM | 10.2 µM |  |  |  |  | 
CC1=Nc2ccccc2OC(C)=C1N=Nc1ccc2nc(C)[nH]c2c1 | > 100 µM | > 100 µM | > 100 µM | > 100 µM | > 100 µM | > 100 µM | > 100 µM |  | > 100 µM | > 100 µM | > 100 µM |  |  |  |  | 
Nc1c(-c2ccc(Cl)c(Cl)c2)c2ccc([N+](=O)[O-])cc2c(=O)n1-c1nc2ccccc2s1 | > 38.6 µM | 27.3 µM |  | > 36 µM | > 100 µM | 20.4 µM | > 100 µM | 1.18 µM | > 100 µM | > 100 µM | > 36.1 µM |  |  |  |  | 
COP(=O)(OC)C1=c2c(C)noc2=C2C=COC2C1=O (centres undefined) | > 100 µM | > 100 µM | > 100 µM | > 100 µM | > 100 µM | > 100 µM |  | > 100 µM | > 100 µM | > 100 µM | > 100 µM |  |  |  |  | 
COC(=O)c1c(C)nc2c1cc(O)c1[nH]c(C)c(C)nc12 | 71.7 µM | > 100 µM |  | > 100 µM | > 100 µM | > 100 µM | > 100 µM | > 100 µM | > 100 µM | > 100 µM | > 100 µM |  |  |  |  | 
Nn1c(Nc2ccc(S(=O)(=O)Nc3ncccn3)cc2)nnc(/C=C/c2c(O)ccc3ccccc23)c1=O | > 100 µM | > 100 µM | 71 µM | > 100 µM | > 100 µM |  |  |  | 66.8 µM | 52.6 µM | 78.2 µM |  |  |  |  | 
[N-]=[N+]=NC(c1ccccc1)(c1ccccc1)c1ccccc1 | 42.2 µM | 45.3 µM | 31.2 µM | 31.4 µM | 62.6 µM | 27.1 µM | 37.8 µM | 26.8 µM |  | 31.4 µM | 35.5 µM |  |  |  |  | 
Oc1ccc(Cc2cc(Cc3ccc(O)cc3)cc(Cc3ccc(O)cc3)c2)cc1 | > 50 µM | > 50 µM | > 50 µM | > 50 µM | > 50 µM | > 50 µM | > 50 µM |  | > 50 µM | > 50 µM | > 50 µM |  |  |  |  | 
